This note sets out measurements from paper PMC6857626, “Potent bicyclic inhibitors of malarial cGMP-dependent protein kinase: approaches to combining improvements in cell potency, selectivity and structural novelty” (Bioorganic & Medicinal Chemistry Letters, 2019).

The test system of series [1] is Plasmodium falciparum. Description: blood stage hypoxanthine incorporation (HXI) cell assay. The format is cell-based. The following applies: read-out: Pf HXI pEC50 (converted). From the text:
[21] Full details on biochemical assay and anti-malarial hypoxanthine incorporation (cell based) assay procedures can be found in reference 16.

A short description of series [2]: mouse liver microsomal turnover. The format is in vitro ADME. The following applies: % remaining after 30 min incubation with mouse liver microsomes. The protocol: Microsomal turnover data was obtained using mouse liver microsomes (MLM) obtained from BD Biosciences. The compounds are pre-incubated at 37 °C for 5 minutes with the microsomes and the reaction was initiated by adding an equal volume of NADPH generating solution, also obtained from BD Biosciences. The final compound concentration in the incubation is 1 μM, and the microsomal protein concentration is 0.2 mg/mL. A sample is taken at t=0 and quenched with 2x volume of ice-cold methanol containing an internal standard reference compound (carbamazepine). The reaction is agitated at 37 °C for 30 minutes, when a further sample was taken and quenched in an identical fashion. The samples were centrifuged at 10000 rpm for 10 minutes and the supernatant taken for analysis in triplicate by LC-MS/MS (Agilent Technologies G6410 series, triple quadrupole with MM-ESI ion source) using optimised multiple reaction monitoring (MRM) scans and a standard column gradient on an Acquity UPLC BEH C8 1.7μm column, running acetonitrile and water with 0.05% acetic acid as the mobile phase. The % turnover is obtained by calculating the percentage difference of the peak areas, normalised to the internal standard, at t=0 and t=30. Verapamil is used as the standard compound for this assay.

Series [3] in a line: Kinetic solubility. The format is physicochemical. The protocol: The kinetic solubility was measured by diluting a small amount of 10 mM DMSO stock into PBS pH7.4 in a filtration plate at a target concentration of 200 μM giving a final solution composition of 98:2 PBS:DMSO. Each compound was run in triplicate on the same plate with two standard compounds, verapamil and ketoconazole, included per plate. The filtration plate was shaken at 500 rpm for 90 minutes and then filtered under vacuum. The filtrate was sampled and diluted with a DMSO:PBS mixture in a flat bottomed UV plate to give a solution with a composition of PBS:DMSO 80:20. A dilution series for each compound was then created in flat bottomed UV plates in PBS:DMSO 80:20 with concentrations 200 μM, 100 μM, 50 μM, 25 μM, 12.5 μM & […]. The UV absorbance for these solutions was read across 230-400 nm at 1 nm intervals using a TECAN Safire II plate reader and a suitable UV wavelength chosen around the UV maximum of each compound.

Series [4] deals with HepG2 human liver-derived cells. Description: in vitro cytotoxicity assay in HepG2 cells. The format is cell-based. The note with it: for EC50: Homo sapiens, read-out: HepG2 pEC50 (converted).
Series [5] concerns the target T1, PKG1α(h) (Homo sapiens, UniProt Q13976).
T1 construct: purchased Millipore (Kinase Profiler service, tested externally)
T1 sequence (Q13976 1-671): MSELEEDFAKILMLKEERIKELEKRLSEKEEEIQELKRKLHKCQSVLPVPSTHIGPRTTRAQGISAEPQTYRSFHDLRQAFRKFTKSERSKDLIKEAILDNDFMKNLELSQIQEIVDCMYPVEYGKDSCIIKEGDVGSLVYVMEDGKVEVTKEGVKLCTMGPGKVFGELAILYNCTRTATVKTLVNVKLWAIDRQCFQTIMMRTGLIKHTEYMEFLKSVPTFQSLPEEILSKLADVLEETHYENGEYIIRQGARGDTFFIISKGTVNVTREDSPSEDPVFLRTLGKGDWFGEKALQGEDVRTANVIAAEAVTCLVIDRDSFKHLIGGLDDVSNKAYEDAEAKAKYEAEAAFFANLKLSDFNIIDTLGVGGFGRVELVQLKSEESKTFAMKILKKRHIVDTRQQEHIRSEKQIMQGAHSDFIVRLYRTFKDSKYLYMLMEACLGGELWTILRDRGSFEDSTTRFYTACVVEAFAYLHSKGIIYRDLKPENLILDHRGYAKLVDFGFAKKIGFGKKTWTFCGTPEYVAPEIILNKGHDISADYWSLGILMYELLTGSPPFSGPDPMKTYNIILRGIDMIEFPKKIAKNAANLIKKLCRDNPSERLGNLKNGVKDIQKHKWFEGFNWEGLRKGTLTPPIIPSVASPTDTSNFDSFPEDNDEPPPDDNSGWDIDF
Description: Millipore Kinase Profiler assay, PKG1α(h). The format is biochemical.

Series [6] addresses T2, PKG1β(h) (Homo sapiens, UniProt Q13976).
T2 construct: purchased Millipore (Kinase Profiler service, tested externally)
T2 sequence (Q13976 1-686 isoform Q13976-2): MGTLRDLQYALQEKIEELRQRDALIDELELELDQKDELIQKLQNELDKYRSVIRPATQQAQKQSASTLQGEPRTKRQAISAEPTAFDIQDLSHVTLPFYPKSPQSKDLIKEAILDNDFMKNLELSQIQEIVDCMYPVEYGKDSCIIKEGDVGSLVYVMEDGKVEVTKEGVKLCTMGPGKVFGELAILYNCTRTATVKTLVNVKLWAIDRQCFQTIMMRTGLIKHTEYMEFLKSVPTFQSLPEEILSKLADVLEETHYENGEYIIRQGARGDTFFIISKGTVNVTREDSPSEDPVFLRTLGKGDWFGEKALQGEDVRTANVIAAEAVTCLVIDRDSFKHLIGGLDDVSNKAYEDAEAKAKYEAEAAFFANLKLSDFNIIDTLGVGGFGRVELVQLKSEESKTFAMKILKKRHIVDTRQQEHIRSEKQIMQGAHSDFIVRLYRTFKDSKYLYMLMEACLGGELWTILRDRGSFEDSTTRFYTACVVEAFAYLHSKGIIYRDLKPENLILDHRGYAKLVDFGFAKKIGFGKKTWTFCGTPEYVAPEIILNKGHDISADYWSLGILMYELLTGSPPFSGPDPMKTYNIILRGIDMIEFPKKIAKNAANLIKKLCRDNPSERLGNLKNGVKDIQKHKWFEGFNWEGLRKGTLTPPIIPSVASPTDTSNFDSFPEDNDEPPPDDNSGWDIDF
As to the kind of experiment: Millipore Kinase Profiler assay, PKG1β(h). The format is biochemical.

The target in series [7] is PfPKG (Plasmodium falciparum, UniProt Q8I719). As to the kind of experiment: biochemical. The note with it: for IC50: biochemical assay, read-out: PfPKG pIC50 (converted); for LLE (pIC50 – mLogD): PfPKG pIC50 minus measured logD.
PfPKG, sequence (Q8I719 whole entry): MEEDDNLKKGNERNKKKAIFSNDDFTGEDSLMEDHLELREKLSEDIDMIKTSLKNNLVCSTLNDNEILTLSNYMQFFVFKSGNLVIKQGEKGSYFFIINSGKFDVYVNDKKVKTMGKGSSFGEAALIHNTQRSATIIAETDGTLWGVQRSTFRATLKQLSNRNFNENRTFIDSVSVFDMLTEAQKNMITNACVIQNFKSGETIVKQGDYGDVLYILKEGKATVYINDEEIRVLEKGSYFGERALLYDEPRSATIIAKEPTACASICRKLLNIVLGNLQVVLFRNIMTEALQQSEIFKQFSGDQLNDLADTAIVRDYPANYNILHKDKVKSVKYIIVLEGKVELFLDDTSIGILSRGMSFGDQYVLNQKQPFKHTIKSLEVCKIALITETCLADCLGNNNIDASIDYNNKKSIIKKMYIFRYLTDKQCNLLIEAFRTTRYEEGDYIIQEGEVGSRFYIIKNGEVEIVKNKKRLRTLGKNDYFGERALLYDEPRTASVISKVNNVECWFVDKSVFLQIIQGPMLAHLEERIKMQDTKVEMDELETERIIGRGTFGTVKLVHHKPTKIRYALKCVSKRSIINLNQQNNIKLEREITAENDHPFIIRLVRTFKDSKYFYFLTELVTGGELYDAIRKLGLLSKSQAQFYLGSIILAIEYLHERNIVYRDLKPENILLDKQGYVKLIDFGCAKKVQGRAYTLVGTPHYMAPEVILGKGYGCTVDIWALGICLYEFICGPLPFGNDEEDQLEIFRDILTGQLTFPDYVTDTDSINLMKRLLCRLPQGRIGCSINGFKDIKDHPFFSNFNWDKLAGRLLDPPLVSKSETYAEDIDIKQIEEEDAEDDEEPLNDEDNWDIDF
Series [8] in a line: Measured logD (shake flask). It is filed as physicochemical. The note with it: for mLogD: octanol/PBS.
The subject of series [9] is human kinase panel. Description: Kinase selectivity profiling against a human kinase panel. The format is biochemical. The following applies: single 1 µM concentration. On the procedure:
[29] Kinase selectivity profiling was carried out at the MRC Protein Phosphorylation Unit at the University of Dundee, U.K. at a single concentration of 1 µM for all three compounds.

[10] abbreviates: up to a top assay concentration of 1 µM.
[11] abbreviates: blood stage hypoxanthine incorporation cell assay.

Where two headings read alike, the source gives them in different places.

Take `CN1CCN(c2ccc(Nc3nccc(-c4c(-c5ccc(F)cc5)nc5ccccn45)n3)cc2)CC1` [Compound 1]: the EC50 in [1] was 115 nM. Besides, in series [2], the MLM % rem turned out to be 65%.
A word on the pIC50: it is the IC50 on a negative log10 scale, so that one unit is a factor of ten. Read a high pIC50 as a low IC50. Consider `CN(C)Cc1ccn2c(-c3ccnc(N)n3)c(-c3ccc(F)cc3)nc2c1` [Compound 2], for which the EC50 in series [1] is 363 nM; in [4] (HepG2, 48 h) it was more than 20000 nM. The same compound registered a Kin sol in series [3] (kinetic solubility, PBS pH7.4) of 200 µM. Besides, the pIC50 in series [5] (PKG1α(h)) and in series [6] (PKG1β(h)) was less than 6 each time. The “activity against human orthologue of PKG” value in series [5] (setting [10]) and in series [6] (setting [10]) was “no activity” throughout.
With `Cc1nc2cc(CN(C)C)ccn2c1-c1ccnc(N)n1` [Compound 7], the IC50 in [7] is 57.5 nM.
On the same count and under the same terms, with `CN(C)Cc1ccn2c(-c3ccnc(N)n3)c(C(F)(F)F)nc2c1` [Compound 8] the figure was 148 nM.
As for `CN(C)Cc1ccn2c(-c3ccnc(N)n3)c(C3CC3)nc2c1` [Compound 9], in series [7], the “LLE (pIC50 – mLogD)” value was 5.8 and the IC50 was 35.5 nM. This compound also displayed a mLogD in series [8] of 1.7.
Turning to `CC(C)Nc1nccc(-c2c(C3CC3)nc3cc(CN(C)C)ccn23)n1` [Compound 10], in series [7], the “LLE (pIC50 – mLogD)” value is reported as 4.4 and the IC50 is 43.7 nM. For the same compound, the mLogD in [8] is reported as 3.0.
With `CN(C)Cc1ccn2c(-c3ccnc(Nc4ccccn4)n3)c(C3CC3)nc2c1` [Compound 11], in series [7], the IC50 was 8.71 nM. In addition, the EC50 in series [1] (setting [11]) was 1740 nM. This compound also came in with a mLogD in series [8] of 2.5.
With `CN(C)Cc1ccn2c(-c3ccnc(Nc4ccc(N5CCN(C)CC5)cc4)n3)c(C3CC3)nc2c1` [Compound 12], in series [7], the “LLE (pIC50 – mLogD)” value is reported as 6.0 and the IC50 is 7.24 nM. The EC50 in series [1] (setting [11]) was 112 nM. Further, the mLogD in series [8] was found to be 2.1.
With `CN(C)Cc1ccn2c(-c3ccnc(Nc4ccc(N5CCNCC5)cc4)n3)c(C3CC3)nc2c1` [Compound 13], in series [7], the “LLE (pIC50 – mLogD)” value is on record as 6.8 and the IC50 is 4.47 nM. Moreover, the EC50 in [1] (setting [11]) was 200 nM. Further, in series [8], the mLogD came out at 1.5. In series [2], the MLM % rem is given as 53%. In series [3] (90 min, pH 7.4), this compound gave a Kin sol of 189 µM. In [4], the “in vitro cytotoxicity (in words)” value is given as “non-cytotoxic”. In addition, the EC50 in series [4] (HepG2, concentration at which half of cells remained viable at 48 h) was more than 10000 nM. Moreover, the “selectivity against human kinase panel (in words)” value in series [9] is reported as “decreased level of selectivity”.
Turning to `CN(C)Cc1cccn2c(-c3ccnc(N)n3)c(-c3ccc(F)cc3)nc12` [Compound 15], in series [7], the “LLE (pIC50 – mLogD)” value stood at 5.9 and the IC50 is 29.5 nM. For the same compound, in series [8] (octanol/phosphate buffered saline (PBS), read-out: mLogD), the logD at 12 h turned out to be 1.6.
In the case of `CN(C)Cc1ccc2nc(-c3ccc(F)cc3)c(-c3ccnc(N)n3)n2c1` [Compound 16], in [7], the “LLE (pIC50 – mLogD)” value stood at 5.0 and the IC50 is 51.3 nM. In series [8], this compound had a mLogD of 2.3.
As for `CN1CCC(Nc2ccn3c(-c4ccnc(N)n4)c(-c4ccc(F)cc4)nc3c2)C1` (stereo not drawn) [Compound 20], in series [7], the “LLE (pIC50 – mLogD)” value is on record as 6.0 and the IC50 is 8.51 nM. For the same compound, the EC50 in series [1] (setting [11]) is 851 nM. This compound also gave a mLogD in series [8] of 2.1.
On to `CN(C)CCCNc1ccc2nc(-c3ccc(F)cc3)c(-c3ccnc(N)n3)n2c1` [Compound 21], for which, in [7], the “LLE (pIC50 – mLogD)” value is reported as 5.7 and the IC50 was 12.6 nM. The same compound showed a mLogD in series [8] of 2.2.
Consider `CN1CCN(c2ccn3c(-c4ccnc(N)n4)c(-c4ccc(F)cc4)nc3c2)CC1` [Compound 22], for which, in [7], the “LLE (pIC50 – mLogD)” value came to 5.4 and the IC50 was 3.31 nM. Moreover, in series [1] (setting [11]), the EC50 is 263 nM. For the same compound, in series [8], the mLogD amounted to 3.1. For the same compound, the “in vitro cytotoxicity (in words)” value in series [4] is “did not”.
On to `CN1CCN(c2ccc3nc(-c4ccc(F)cc4)c(-c4ccnc(N)n4)n3c2)CC1` [Compound 23], for which, in series [7], the “LLE (pIC50 – mLogD)” value stood at 5.8 and the IC50 is 2.63 nM. For the same compound, the EC50 in [1] (setting [11]) is 871 nM. Further, the mLogD in series [8] is reported as 2.8. Moreover, the “in vitro cytotoxicity (in words)” value in [4] is listed as “significant activity”.
For the compound `CN1CCC(Nc2ccn3c(-c4ccnc(N)n4)c(-c4ccc(F)cc4)nc3c2)CC1` [Compound 24], in series [7], the “LLE (pIC50 – mLogD)” value turned out to be 6.2 and the IC50 was 3.63 nM. The EC50 in series [1] (setting [11]) was 347 nM. Also, the mLogD in series [8] was found to be 2.2. For the same compound, the MLM % rem in [2] was 88%.
Take `CN(C)CCOc1ccn2c(-c3ccnc(N)n3)c(-c3ccc(F)cc3)nc2c1` [Compound 25]: in series [7], the “LLE (pIC50 – mLogD)” value came out at 5.9 and the IC50 is 7.41 nM. Besides, the EC50 in [1] (setting [11]) is 813 nM. Moreover, the mLogD in [8] is on record as 2.2. The compound also returned an MLM % rem in series [2] of 54%.
On to `CN(C)CCNc1ccn2c(-c3ccnc(N)n3)c(-c3ccc(F)cc3)nc2c1` [Compound 26], for which, in [7], the “LLE (pIC50 – mLogD)” value was 6.5 and the IC50 was 2.57 nM. Moreover, the mLogD in series [8] is 2.1. The same compound returned an MLM % rem in [2] of 80%.
For the compound `CN(C)CCc1ccn2c(-c3ccnc(N)n3)c(-c3ccc(F)cc3)nc2c1` [Compound 29], in [7], the “LLE (pIC50 – mLogD)” value stood at 5.8 and the IC50 was 20.4 nM. Also, the EC50 in [1] (setting [11]) is 1000 nM. In [8], this compound yielded a mLogD of 1.9. The MLM % rem in series [2] is reported as 65%.
